Read-outs that look alike come from different tables or passages of the source.
How the values were obtained:
Type in all cases: cell-based
[1] = tested on: DENV-1 Djibouti strain D1/H/IMTSSA/98/606; assay: Antiviral activity against DENV-1 in Vero-B cells (viral RNA load by RT-qPCR); conditions: Dengue virus, DENV1, 168 h; DENV-1, Vero-B cells, inhibition of viral RNA replication by 50%, 7 days
[2] = tested on: DENV-3 strain H87 prototype; assay: Antiviral activity against DENV-3 in Vero-B cells (viral RNA load by RT-qPCR); conditions: Dengue virus
Vero-B cells = assay: in vitro; conditions: African green monkey
Experimental: (§1) Potential cytotoxic effects of the compounds were evaluated in uninfected quiescent Vero-B or Vero-M cells. Cells were seeded at 5×10^4 cells/well in a 96-well plate in the presence of two-fold serial dilutions (ranging from 50 μg/mL-0.004 μg/mL) of compound and incubated for 4 to 7 days. Culture medium was discarded and 100 μL 3-(4,5-dimethylthiazol-2-yl)-5-(3-carboxymethoxyphenyl)-2-(4-sulfophenyl)-2H-tetrazolium/phenazinemethosuIfate (MTS/PMS; Promega, Leiden, The Netherlands) in PBS was added to each well. Following a 2-hour incubation period at 37° C., the optical density was determined at 498 nm. Cytotoxic activity was calculated using the following formula: % cell viability=100× (ODcompound/ODCC), where ODcompound and ODCC correspond to the optical density at 498 nm of the uninfected cell cultures treated with compound and that of uninfected, untreated cell cultures, respectively. The 50% cytotoxic concentration (i.e., the concentration that reduces the total cell number with 50%; CC50) was calculated using linear interpolation.

in vitro = conditions: African green monkey
Experimental: as §1

DENV-2 NGC = assay: Antiviral activity against DENV-2 in Vero-B cells (viral RNA load by RT-qPCR); conditions: Dengue virus, DENV2, 96 h; DENV-2, Vero-B cells, inhibition of viral RNA replication by 50%, 4 days
DENV-4 strain H241 = assay: Antiviral activity against DENV-4 in Vero-M cells (viral RNA load by RT-qPCR); conditions: Dengue virus, DENV4, 120 h; DENV-4, Vero-M cells, inhibition of viral RNA replication by 50%, 5 days
[3] = DENV3, 168 h, DENV-3, Vero-B cells, inhibition of viral RNA replication by 50%, 7 days, read-out: EC50

| SMILES | EC50 [1] | EC50 [2, 3] | CC50 (Vero-B cells) | CC50 (in vitro) | CC50 (in vitro; CC50 (μM)) | EC50 (DENV-2 NGC) | EC50 (DENV-4 strain H241) | EC50 ([2]; DENV3, Vero B, 168 h) |
| --- | --- | --- | --- | --- | --- | --- | --- | --- |
| COc1cccc(NC(C(=O)c2nn(C)cc2-c2ccc(F)cc2)c2ccccc2)c1 (stereo not drawn) [CPD-002] | 2.09 µM | 0.794 µM | > 120 µM | > 120 µM | > 120 µM | 0.095 µM | 8.21 µM |  |
| COc1cccc(NC(C(=O)c2nn(C)cc2-c2ccc3scnc3c2)c2ccc(OC)nc2)c1 (stereo not drawn) [CPD-016] |  |  |  |  | > 103 µM | 1.87 µM |  |  |
| COc1cccc(NC(C(=O)c2nn(C)cc2-c2ccncc2)c2ccc(C)cc2)c1 (stereo not drawn) [CPD-010] |  |  |  |  | > 121 µM | 2.11 µM |  |  |
| COc1cccc(NC(C(=O)c2nn(C)cc2-c2cncnc2)c2ccc(C)cc2)c1 (stereo not drawn) [CPD-009] |  |  |  |  | > 120 µM | 3.29 µM |  |  |
| COc1cccc(NC(C(=O)c2nn(C)cc2-c2ccccc2)c2cccnc2)c1 (stereo not drawn) [CPD-003] | 7.01 µM |  | 104 µM |  | > 125 µM | 1.67 µM |  |  |
| COc1cc(NC(C(=O)c2nn(C)cc2-c2ccccc2)c2ccc(C)cc2)cc(OC)c1 (stereo not drawn) [CPD-015] | 0.132 µM |  | > 113 µM | > 113 µM | > 113 µM | 0.016 µM | 3.15 µM | 1.19 µM |
| COc1cc(NC(C(=O)N2CCN(C)CC2c2ccccc2)c2ccc(C)cc2)cc(OC)c1 (stereo not drawn) [CPD-238] |  |  |  |  | > 99 µM | 2.82 µM |  |  |
| COc1cccc(NC(C(=O)c2nn(C)cc2-c2c(C)noc2C)c2ccc(C)cc2)c1 (stereo not drawn) [CPD-020] |  |  |  |  | > 116 µM | 13.2 µM |  |  |
| COc1cccc(NC(C(=O)c2c[nH]cc2-c2ccccc2)c2ccccc2)c1 (stereo not drawn) [CPD-024] | 1.53 µM | 1.91 µM |  | 10 µM |  | 0.207 µM | 1.59 µM |  |
| COc1cccc(NC(C(=O)c2nn(C)cc2-c2ccc3c(c2)CCO3)c2ccc(OC)nc2)c1 (stereo not drawn) [CPD-017] |  |  |  |  | > 106 µM | 1.64 µM |  |  |
| COc1cc(NC(C(=O)c2cn(C)c(Br)c2-c2ccccc2)c2ccccc2)cc(OC)c1 (stereo not drawn) [CPD-311] | 0.016 µM | 0.266 µM | > 99 µM |  | > 99 µM | 0.047 µM |  |  |
| COc1cc(NC(C(=O)N2CCSCC2c2ccccc2)c2ccc(C)cc2)cc(OC)c1 (stereo not drawn) [CPD-313] |  |  |  |  | > 108 µM | 0.951 µM |  |  |
| COc1cccc(NC(C(=O)c2nn(C)cc2-c2ccc(C)nc2)c2ccccc2)c1 (stereo not drawn) [CPD-019] |  |  |  |  | 80 µM | 39.9 µM |  |  |
| COc1cccc(NC(C(=O)c2nn(C)cc2-c2ccccc2)c2cnc(OC)cn2)c1 (stereo not drawn) [CPD-011] |  |  |  |  | > 116 µM | 0.745 µM |  |  |
| COc1cc(NC(C(=O)N2CCCCC2c2ccccc2)c2ccc(C)cc2)cc(OC)c1 (stereo not drawn) [CPD-027] | 2.08 µM | 7.23 µM |  |  |  | 1.22 µM |  |  |
| COc1cccc(NC(C(=O)c2cscc2-c2ccccc2)c2ccccc2)c1 (stereo not drawn) [CPD-025] | 3.63 µM |  |  |  | > 125 µM |  |  |  |

| SMILES | EC50 [1] | EC50 [2, 3] | CC50 (Vero-B cells) | CC50 (in vitro) | CC50 (in vitro; CC50 (μM)) | EC50 (DENV-2 NGC) | EC50 (DENV-4 strain H241) | EC50 ([2]; DENV3, Vero B, 168 h) |
| --- | --- | --- | --- | --- | --- | --- | --- | --- |
| COc1cccc(NC(C(=O)c2nn(C)cc2-c2ccc(C#N)cc2)c2cc3ccccn3n2)c1 (stereo not drawn) [CPD-014] |  |  |  |  | > 108 µM | 2.29 µM |  |  |
| COc1cc(NC(C(=O)N2CCOCC2c2ccccc2)c2ccc(C)cc2)cc(OC)c1 (stereo not drawn) [CPD-312] |  |  |  |  | > 112 µM | 5.65 µM |  |  |
| COc1cccc(NC(C(=O)c2nn(C)cc2-c2ccccc2F)c2ccccc2)c1 (stereo not drawn) [CPD-005] |  |  |  |  | > 120 µM | 0.383 µM |  |  |
| COc1cccc(NC(C(=O)c2nn(C)cc2-c2ccccc2)c2cc3ccccn3n2)c1 (stereo not drawn) [CPD-013] | 2.24 µM |  | > 114 µM |  | > 114 µM | 0.343 µM |  |  |
| COc1cccc(NC(C(=O)c2nn(C)cc2-c2cccs2)c2ccc(OC)nc2)c1 (stereo not drawn) [CPD-018] |  |  |  |  | > 115 µM | 1.27 µM |  |  |
| COc1cccc(NC(C(=O)c2nn(C)cc2-c2cnn(C)c2)c2ccccc2)c1 (stereo not drawn) [CPD-007] |  |  |  |  | > 125 µM | 15.5 µM |  |  |
| COc1cc(NC(C(=O)N2CCCC2c2ccccc2)c2ccc(C)cc2)cc(OC)c1 (stereo not drawn) [CPD-028] | 17.2 µM |  | 70 µM | > 116 µM | > 116 µM | 0.221 µM | 6.67 µM |  |
| COc1cc(NC(C(=O)N2CCCCCC2c2ccccc2)c2ccc(C)cc2)cc(OC)c1 (stereo not drawn) [CPD-242] |  |  |  |  | > 109 µM | 1.16 µM |  |  |
| COc1cncc(NC(C(=O)c2nn(C)cc2-c2ccccc2)c2ccc(OC)nc2)c1 (stereo not drawn) [CPD-012] |  |  |  |  | > 116 µM | 71.3 µM |  |  |
| COc1cccc(NC(C(=O)c2cn(C)nc2-c2ccccc2)c2ccccc2)c1 (stereo not drawn) [CPD-026] | 2.39 µM |  |  |  | > 126 µM |  |  |  |
| COc1cccc(NC(C(=O)c2n[nH]cc2-c2ccccc2)c2ccccc2)c1 (stereo not drawn) [CPD-023] | 0.939 µM |  |  |  |  | 0.443 µM |  |  |
| COc1cc(NC(C(=O)N2CCS(=O)(=O)CC2c2ccccc2)c2ccc(C)cc2)cc(OC)c1 (stereo not drawn) [CPD-314] |  |  |  |  | > 101 µM | 4.47 µM |  |  |
| COc1cccc(NC(C(=O)c2nn(C)cc2-c2ccccc2)c2ccc(F)cc2)c1 (stereo not drawn) [CPD-008] | 2.64 µM | 1.01 µM | > 120 µM | > 120 µM | > 120 µM | 0.096 µM | 4.74 µM |  |
| COc1cccc(NC(C(=O)c2nn(C)cc2-c2ccccc2)c2cncc(F)c2)c1 (stereo not drawn) [CPD-004] | 9.78 µM |  | > 120 µM |  | > 120 µM | 1.55 µM |  |  |
| COc1cccc(NC(C(=O)c2nn(C)cc2-c2ccccc2)c2ccccc2)c1 (stereo not drawn) [CPD-001] | 2.64 µM | 2.12 µM | > 126 µM |  | > 125 µM | 0.323 µM |  |  |
| COc1cccc(NC(C(=O)c2nn(C)cc2-c2cccc(F)c2)c2ccccc2)c1 (stereo not drawn) [CPD-006] |  |  |  |  | > 120 µM | 0.517 µM |  |  |
